Test results reported in patent publication US20260137815A1, “DIAGNOSTIC AND TREATMENT METHODS FOR ONYCHOMYCOSIS” (ToeFX Inc., priority 2022, published 2026).

Tested on: T. rubrum strain F4520
Test: UV-Visual absorption spectra of MB incubated with T. rubrum
Method: Referring to FIG. 5C, shown therein are UV-Visual absorption spectra of MB when incubated with T. rubrum. T. rubrum strain F4520 cubes were retrieved from −80° freezer, thawed at room temperature, and transferred to an Sabourand dextrose agar (SDA) plate, and distributed evenly on the SDA plate. The SDA plate was sealed by parafilm and moved into a 30° C. incubator until vigorous fungal growth was observed. Next, fungal mycelia were prepared, by transferring a 6.25 cm^2 culture from the SDA plate to a sterile blender cup and adding 200 mL sterile water. After 30 seconds of blending, varying amounts of blendate was pipetted into wells of a 96 well plate. […] The MB absorbance spectra was then measured by a photospectrometer.
The more dilute the fungus, the higher the MB absorbance value (i.e., normalized absorbance), indicating higher amounts of free MB in the solution.
A similar protocol was followed as described above for FIG. 5C, except that the concentration of T. rubrum in the solution was kept constant. MB absorbance was measured immediately (curve 502), 4 days (curve 504), and 7 days (curve 506) after mixing. Immediately after mixing, the MB absorbance peak is centered at ˜660 nm, corresponding to the absorption peak of MB alone in solution (see FIG. 5A). Over time, the intensity of the absorbance peak is lowered as MB is adsorbed to fungal cells, consistent with the curves in FIG. 5C.

CN(C)c1ccc2nc3ccc(=[N+](C)C)cc-3sc2c1 [MB, Methylene Blue]
MB absorbance (normalized) with increasing fungal concentration (0.01% v/v solution of MB, varying concentrations of T. rubrum): lower MB absorbance is observed | shift of MB absorbance peak over time (0.25% v/v solution of MB with T. rubrum culture, immediately, 4 days, 7 days after mixing): observable blue-shifting of the MB absorbance peak over time
